{"source": "ChEMBL document CHEMBL4507311", "about": "“Data for DCP probe A-1155463” (2021)", "key": {"[1]": {"test_system": "RS4-11", "experiment": "CellTiter-Glo Luminescent Cell Viability Assay (BCL-2 dependent cell line RS4-11)", "format": "functional, cell-based", "conditions": "Homo sapiens; call rule not given here"}, "[2]": {"test_system": "Tyrosine-protein kinase ABL1 (Homo sapiens), P00519 [F317L]", "conditions": "Compound concentration 1000.0 nM"}, "[3]": {"target": "Aurora kinase B (Homo sapiens) (UniProt Q96GD4)", "sequence (Q96GD4 whole entry)": "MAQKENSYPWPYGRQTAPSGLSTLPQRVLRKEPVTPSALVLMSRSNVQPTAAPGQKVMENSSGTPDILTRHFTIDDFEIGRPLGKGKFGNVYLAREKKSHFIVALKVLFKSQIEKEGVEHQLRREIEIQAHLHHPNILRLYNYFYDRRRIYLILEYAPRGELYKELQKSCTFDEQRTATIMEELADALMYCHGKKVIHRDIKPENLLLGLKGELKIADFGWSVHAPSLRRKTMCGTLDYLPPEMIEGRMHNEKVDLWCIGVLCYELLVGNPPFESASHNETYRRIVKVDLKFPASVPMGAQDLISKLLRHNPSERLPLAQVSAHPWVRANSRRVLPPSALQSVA", "conditions": "Compound concentration 1000.0 nM"}, "[4]": {"target": "Bone morphogenetic protein receptor type-1B (Homo sapiens) (UniProt O00238)", "conditions": "Compound concentration 1000.0 nM"}, "[5]": {"target": "Mitotic checkpoint serine/threonine-protein kinase BUB1 (Homo sapiens) (UniProt O43683)", "conditions": "Compound concentration 1000.0 nM"}, "[6]": {"target": "Casein kinase I isoform delta (Homo sapiens) (UniProt P48730)", "conditions": "Compound concentration 1000.0 nM"}, "[7]": {"target": "Megakaryocyte-associated tyrosine-protein kinase (Homo sapiens) (UniProt P42679)", "conditions": "Compound concentration 1000.0 nM"}, "[8]": {"target": "Serine/threonine-protein kinase DCLK1 (Homo sapiens) (UniProt O15075)", "conditions": "Compound concentration 1000.0 nM"}, "[9]": {"target": "Serine/threonine-protein kinase MRCK gamma (Homo sapiens) (UniProt Q6DT37)", "sequence (Q6DT37 whole entry)": "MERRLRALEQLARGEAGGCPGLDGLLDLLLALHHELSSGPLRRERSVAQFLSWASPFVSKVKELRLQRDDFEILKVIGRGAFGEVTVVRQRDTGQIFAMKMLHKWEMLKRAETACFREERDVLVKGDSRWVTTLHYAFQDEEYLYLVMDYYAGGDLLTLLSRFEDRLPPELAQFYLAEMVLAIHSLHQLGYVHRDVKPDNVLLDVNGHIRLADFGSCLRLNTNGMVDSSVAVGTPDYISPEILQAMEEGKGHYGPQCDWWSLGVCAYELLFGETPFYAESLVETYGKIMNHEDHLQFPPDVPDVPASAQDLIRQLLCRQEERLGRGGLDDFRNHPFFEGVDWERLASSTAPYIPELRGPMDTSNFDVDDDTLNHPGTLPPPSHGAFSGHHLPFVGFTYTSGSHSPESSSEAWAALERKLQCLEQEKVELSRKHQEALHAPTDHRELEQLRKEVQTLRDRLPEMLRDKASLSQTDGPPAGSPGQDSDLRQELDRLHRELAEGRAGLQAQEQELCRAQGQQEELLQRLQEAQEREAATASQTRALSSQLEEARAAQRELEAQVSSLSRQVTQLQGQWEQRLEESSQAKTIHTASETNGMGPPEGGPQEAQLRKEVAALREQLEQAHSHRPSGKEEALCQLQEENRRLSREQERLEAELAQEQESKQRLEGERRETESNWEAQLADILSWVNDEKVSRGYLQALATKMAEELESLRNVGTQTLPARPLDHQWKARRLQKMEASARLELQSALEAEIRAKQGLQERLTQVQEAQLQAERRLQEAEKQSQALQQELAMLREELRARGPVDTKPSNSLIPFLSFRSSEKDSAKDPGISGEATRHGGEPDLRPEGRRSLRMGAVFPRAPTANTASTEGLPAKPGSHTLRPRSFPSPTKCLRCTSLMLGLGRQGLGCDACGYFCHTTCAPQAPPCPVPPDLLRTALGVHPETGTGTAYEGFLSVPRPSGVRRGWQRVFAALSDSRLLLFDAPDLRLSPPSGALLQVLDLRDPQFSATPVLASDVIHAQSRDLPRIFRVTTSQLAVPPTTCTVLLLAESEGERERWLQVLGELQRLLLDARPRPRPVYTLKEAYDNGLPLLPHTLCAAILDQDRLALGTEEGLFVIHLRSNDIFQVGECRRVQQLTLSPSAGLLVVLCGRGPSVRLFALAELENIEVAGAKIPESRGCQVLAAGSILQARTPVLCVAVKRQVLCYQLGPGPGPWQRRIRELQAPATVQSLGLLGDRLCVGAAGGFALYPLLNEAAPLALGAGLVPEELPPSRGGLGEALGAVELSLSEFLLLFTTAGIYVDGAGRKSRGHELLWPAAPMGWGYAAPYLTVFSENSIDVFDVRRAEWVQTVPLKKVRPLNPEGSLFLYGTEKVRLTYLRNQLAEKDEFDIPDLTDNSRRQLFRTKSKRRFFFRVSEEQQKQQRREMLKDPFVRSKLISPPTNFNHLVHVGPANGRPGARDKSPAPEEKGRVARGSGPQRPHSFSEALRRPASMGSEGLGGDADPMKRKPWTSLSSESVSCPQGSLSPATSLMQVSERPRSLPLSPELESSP", "conditions": "Compound concentration 1000.0 nM"}, "[10]": {"test_system": "Epidermal growth factor receptor (Homo sapiens), P00533 [L858R,T790M]", "conditions": "Compound concentration 1000.0 nM"}, "[11]": {"test_system": "Epidermal growth factor receptor (Homo sapiens), P00533 [L861Q]", "conditions": "Compound concentration 1000.0 nM"}, "[12]": {"target": "Mitogen-activated protein kinase 4 (Homo sapiens) (UniProt P31152)", "conditions": "Compound concentration 1000.0 nM"}, "[13]": {"test_system": "Receptor-type tyrosine-protein kinase FLT3 (Homo sapiens), P36888 [R834Q]", "conditions": "Compound concentration 1000.0 nM"}, "[14]": {"target": "Tyrosine-protein kinase Fyn (Homo sapiens) (UniProt P06241)", "sequence (P06241 2-537 limits assumed)": "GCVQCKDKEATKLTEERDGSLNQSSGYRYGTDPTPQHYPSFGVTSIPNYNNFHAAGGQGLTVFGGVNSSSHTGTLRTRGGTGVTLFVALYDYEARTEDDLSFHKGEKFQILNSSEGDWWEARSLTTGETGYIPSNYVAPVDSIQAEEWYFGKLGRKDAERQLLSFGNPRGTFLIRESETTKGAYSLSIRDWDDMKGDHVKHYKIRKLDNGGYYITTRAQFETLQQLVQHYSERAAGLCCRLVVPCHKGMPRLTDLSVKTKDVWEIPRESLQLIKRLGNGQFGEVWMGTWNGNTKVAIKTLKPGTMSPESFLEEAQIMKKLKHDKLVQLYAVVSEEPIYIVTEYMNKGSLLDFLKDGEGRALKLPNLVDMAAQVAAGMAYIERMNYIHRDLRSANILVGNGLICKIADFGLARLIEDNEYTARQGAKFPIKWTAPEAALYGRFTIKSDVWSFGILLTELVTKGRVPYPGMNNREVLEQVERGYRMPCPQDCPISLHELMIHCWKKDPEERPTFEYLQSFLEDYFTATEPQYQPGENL", "conditions": "Compound concentration 1000.0 nM"}, "[15]": {"target": "Homeodomain-interacting protein kinase 3 (Homo sapiens) (UniProt Q9H422)", "conditions": "Compound concentration 1000.0 nM"}, "[16]": {"target": "Insulin receptor (Homo sapiens) (UniProt P06213)", "conditions": "Compound concentration 1000.0 nM"}, "[17]": {"target": "Tyrosine-protein kinase JAK1 (Homo sapiens) (UniProt P23458)", "conditions": "Compound concentration 1000.0 nM"}, "[18]": {"target": "Tyrosine-protein kinase JAK2 (Homo sapiens) (UniProt O60674)", "conditions": "Compound concentration 1000.0 nM"}, "[19]": {"target": "Tyrosine-protein kinase JAK3 (Homo sapiens) (UniProt P52333)", "conditions": "Compound concentration 1000.0 nM"}, "[20]": {"test_system": "Mast/stem cell growth factor receptor Kit (Homo sapiens), P10721 [L576P]", "conditions": "Compound concentration 1000.0 nM"}, "[21]": {"test_system": "Mast/stem cell growth factor receptor Kit (Homo sapiens), P10721 [V559D]", "conditions": "Compound concentration 1000.0 nM"}, "[22]": {"target": "LIM domain kinase 2 (Homo sapiens) (UniProt P53671)", "conditions": "Compound concentration 1000.0 nM"}, "[23]": {"target": "Serine/threonine-protein kinase MAK (Homo sapiens) (UniProt P20794)", "conditions": "Compound concentration 1000.0 nM"}, "[24]": {"target": "Mitogen-activated protein kinase kinase kinase kinase 4 (Homo sapiens) (UniProt O95819)", "sequence (O95819 2-1239 limits assumed)": "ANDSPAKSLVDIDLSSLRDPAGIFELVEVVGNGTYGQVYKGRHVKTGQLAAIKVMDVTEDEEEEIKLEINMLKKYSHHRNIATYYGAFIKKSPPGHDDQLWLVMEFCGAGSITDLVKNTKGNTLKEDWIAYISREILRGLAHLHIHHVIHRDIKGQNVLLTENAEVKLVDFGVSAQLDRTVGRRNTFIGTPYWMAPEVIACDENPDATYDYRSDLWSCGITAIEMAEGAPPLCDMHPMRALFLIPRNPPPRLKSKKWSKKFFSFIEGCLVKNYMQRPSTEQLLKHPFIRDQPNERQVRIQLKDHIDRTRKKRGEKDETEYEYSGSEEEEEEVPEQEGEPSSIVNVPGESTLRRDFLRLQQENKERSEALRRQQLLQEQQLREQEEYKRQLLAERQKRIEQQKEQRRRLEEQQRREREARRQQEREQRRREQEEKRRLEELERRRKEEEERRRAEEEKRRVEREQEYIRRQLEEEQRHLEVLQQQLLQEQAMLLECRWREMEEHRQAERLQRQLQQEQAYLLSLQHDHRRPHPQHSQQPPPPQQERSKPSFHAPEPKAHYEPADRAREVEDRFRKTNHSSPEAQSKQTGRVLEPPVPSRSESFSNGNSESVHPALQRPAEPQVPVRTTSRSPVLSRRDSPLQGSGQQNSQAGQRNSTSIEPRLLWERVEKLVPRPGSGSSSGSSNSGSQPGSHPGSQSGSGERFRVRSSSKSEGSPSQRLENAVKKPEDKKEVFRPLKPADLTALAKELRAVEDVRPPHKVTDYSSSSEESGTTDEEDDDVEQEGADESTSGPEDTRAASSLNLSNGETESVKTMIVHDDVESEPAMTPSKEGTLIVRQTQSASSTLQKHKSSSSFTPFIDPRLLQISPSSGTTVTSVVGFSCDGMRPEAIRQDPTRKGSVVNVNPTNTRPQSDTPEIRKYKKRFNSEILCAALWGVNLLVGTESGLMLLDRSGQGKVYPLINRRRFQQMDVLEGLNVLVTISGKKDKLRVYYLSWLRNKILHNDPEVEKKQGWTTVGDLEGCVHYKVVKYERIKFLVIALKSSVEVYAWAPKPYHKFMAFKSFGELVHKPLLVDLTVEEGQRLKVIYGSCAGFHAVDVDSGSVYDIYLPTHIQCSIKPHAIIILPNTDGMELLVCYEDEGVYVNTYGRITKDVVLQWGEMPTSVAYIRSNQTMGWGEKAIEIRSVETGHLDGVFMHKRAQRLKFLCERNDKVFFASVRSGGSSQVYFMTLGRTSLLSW", "conditions": "Compound concentration 1000.0 nM"}, "[25]": {"target": "MAP/microtubule affinity-regulating kinase 3 (Homo sapiens) (UniProt P27448)", "conditions": "Compound concentration 1000.0 nM"}, "[26]": {"target": "Serine/threonine-protein kinase PAK 3 (Homo sapiens) (UniProt O75914)", "sequence (O75914 whole entry, looked up)": "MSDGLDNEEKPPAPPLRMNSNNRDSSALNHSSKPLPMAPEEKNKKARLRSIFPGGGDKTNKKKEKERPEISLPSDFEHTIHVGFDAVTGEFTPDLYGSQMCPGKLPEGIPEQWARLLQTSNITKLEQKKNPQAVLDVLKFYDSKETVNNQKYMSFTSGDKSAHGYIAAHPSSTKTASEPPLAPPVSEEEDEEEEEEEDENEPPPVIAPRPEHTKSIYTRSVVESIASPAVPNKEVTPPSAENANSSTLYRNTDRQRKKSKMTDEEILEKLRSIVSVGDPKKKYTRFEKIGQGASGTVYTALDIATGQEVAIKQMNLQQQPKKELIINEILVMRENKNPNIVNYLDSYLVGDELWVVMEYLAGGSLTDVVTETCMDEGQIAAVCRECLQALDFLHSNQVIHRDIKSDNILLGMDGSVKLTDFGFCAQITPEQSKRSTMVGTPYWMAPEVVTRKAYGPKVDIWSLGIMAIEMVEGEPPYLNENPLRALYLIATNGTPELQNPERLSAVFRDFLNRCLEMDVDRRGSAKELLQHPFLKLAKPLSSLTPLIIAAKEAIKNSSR", "conditions": "Compound concentration 1000.0 nM"}, "[27]": {"target": "Calcium-dependent protein kinase 1 (Plasmodium falciparum) (UniProt P62344)", "conditions": "Compound concentration 1000.0 nM"}, "[28]": {"target": "Phosphatidylinositol 5-phosphate 4-kinase type-2 beta (Homo sapiens) (UniProt P78356)", "conditions": "Compound concentration 1000.0 nM"}, "[29]": {"test_system": "Proto-oncogene tyrosine-protein kinase receptor Ret (Homo sapiens), P07949 [M918T]", "conditions": "Compound concentration 1000.0 nM"}, "[30]": {"target": "Ribosomal protein S6 kinase alpha-5 (Homo sapiens) (UniProt O75582)", "conditions": "Compound concentration 1000.0 nM"}, "[31]": {"target": "Proto-oncogene tyrosine-protein kinase Src (Homo sapiens) (UniProt P12931)", "conditions": "Compound concentration 1000.0 nM"}, "[32]": {"target": "Dual specificity testis-specific protein kinase 1 (Homo sapiens) (UniProt Q15569)", "conditions": "Compound concentration 1000.0 nM"}, "[33]": {"target": "Angiopoietin-1 receptor (Homo sapiens) (UniProt Q02763)", "conditions": "Compound concentration 1000.0 nM"}, "[34]": {"target": "Dual specificity protein kinase TTK (Homo sapiens) (UniProt P33981)", "sequence (P33981 whole entry)": "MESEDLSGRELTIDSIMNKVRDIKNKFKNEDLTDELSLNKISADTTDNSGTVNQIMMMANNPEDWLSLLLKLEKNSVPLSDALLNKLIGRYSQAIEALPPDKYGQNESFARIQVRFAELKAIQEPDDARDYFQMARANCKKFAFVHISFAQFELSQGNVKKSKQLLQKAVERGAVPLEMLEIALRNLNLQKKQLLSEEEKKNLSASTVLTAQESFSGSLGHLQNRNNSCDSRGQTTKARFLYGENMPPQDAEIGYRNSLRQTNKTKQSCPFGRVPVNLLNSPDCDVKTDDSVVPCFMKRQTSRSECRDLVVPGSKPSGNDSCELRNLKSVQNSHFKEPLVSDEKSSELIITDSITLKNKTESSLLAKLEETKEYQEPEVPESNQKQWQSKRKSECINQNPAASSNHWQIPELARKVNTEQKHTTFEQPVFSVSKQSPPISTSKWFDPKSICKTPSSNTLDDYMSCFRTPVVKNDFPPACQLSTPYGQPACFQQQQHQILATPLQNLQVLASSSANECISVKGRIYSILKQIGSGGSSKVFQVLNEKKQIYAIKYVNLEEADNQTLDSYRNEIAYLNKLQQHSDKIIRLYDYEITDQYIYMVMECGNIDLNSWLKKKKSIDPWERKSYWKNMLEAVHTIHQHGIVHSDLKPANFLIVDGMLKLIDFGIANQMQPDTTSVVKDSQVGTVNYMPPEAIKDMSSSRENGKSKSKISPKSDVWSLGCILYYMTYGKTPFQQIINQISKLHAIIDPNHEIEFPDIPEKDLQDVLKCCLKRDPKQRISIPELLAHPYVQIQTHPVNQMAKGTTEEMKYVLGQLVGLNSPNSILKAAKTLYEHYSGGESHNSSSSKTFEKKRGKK", "conditions": "Compound concentration 1000.0 nM"}, "[35]": {"target": "Wee1-like protein kinase (Homo sapiens) (UniProt P30291)", "conditions": "Compound concentration 1000.0 nM"}, "[36]": {"target": "T1, Alpha-1B adrenergic receptor (Homo sapiens) (UniProt P35368)", "T1 sequence (whole entry)": "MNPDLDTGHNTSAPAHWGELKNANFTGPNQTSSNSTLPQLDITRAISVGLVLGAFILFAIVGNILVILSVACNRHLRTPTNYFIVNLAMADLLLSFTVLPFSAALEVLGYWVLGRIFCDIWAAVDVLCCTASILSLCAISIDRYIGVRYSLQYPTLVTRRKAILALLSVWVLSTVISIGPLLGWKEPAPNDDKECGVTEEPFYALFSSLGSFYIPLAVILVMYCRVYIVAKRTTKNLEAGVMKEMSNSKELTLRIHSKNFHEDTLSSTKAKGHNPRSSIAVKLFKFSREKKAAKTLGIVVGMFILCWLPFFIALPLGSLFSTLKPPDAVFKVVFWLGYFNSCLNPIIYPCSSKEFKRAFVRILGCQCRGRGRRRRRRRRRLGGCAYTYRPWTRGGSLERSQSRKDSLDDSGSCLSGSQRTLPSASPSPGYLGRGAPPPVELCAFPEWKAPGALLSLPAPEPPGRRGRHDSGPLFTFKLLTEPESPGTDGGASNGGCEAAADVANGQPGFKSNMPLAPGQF", "conditions": "Compound concentration 10.0 uM"}, "[37]": {"target": "GABA-A receptor; anion channel (Rattus norvegicus) (UniProt O09028+P15431+P18506+P18508+P19969+P20236+P23574+P23576+P28471+P28473+P30191+P62813+P63079+P63138+Q91ZM7+Q9ES14)", "conditions": "Compound concentration 10.0 uM"}}}
{"smiles": "CN(C)CC#Cc1ccc(OCCCc2sc(N3CCc4cccc(C(=O)Nc5nc6ccccc6s5)c4C3)nc2C(=O)O)c(F)c1", "note": "[A-1155463]", "values": [{"measurement": "EC50", "setting": "[1]", "result": "> 10 µM (not active)"}, {"measurement": "residual activity", "setting": "[2]", "result": 100, "unit": "%"}, {"measurement": "residual activity", "setting": "[3]", "result": 79, "unit": "%"}, {"measurement": "residual activity", "setting": "[4]", "result": 84, "unit": "%"}, {"measurement": "residual activity", "setting": "[5]", "result": 81, "unit": "%"}, {"measurement": "residual activity", "setting": "[6]", "result": 95, "unit": "%"}, {"measurement": "residual activity", "setting": "[7]", "result": 96, "unit": "%"}, {"measurement": "residual activity", "setting": "[8]", "result": 72, "unit": "%"}, {"measurement": "residual activity", "setting": "[9]", "result": 90, "unit": "%"}, {"measurement": "residual activity", "setting": "[10]", "result": 100, "unit": "%"}, {"measurement": "residual activity", "setting": "[11]", "result": 100, "unit": "%"}, {"measurement": "residual activity", "setting": "[12]", "result": 89, "unit": "%"}, {"measurement": "residual activity", "setting": "[13]", "result": 100, "unit": "%"}, {"measurement": "residual activity", "setting": "[14]", "result": 96, "unit": "%"}, {"measurement": "residual activity", "setting": "[15]", "result": 87, "unit": "%"}, {"measurement": "residual activity", "setting": "[16]", "result": 92, "unit": "%"}, {"measurement": "residual activity", "setting": "[17]", "result": 100, "unit": "%"}, {"measurement": "residual activity", "setting": "[18]", "result": 100, "unit": "%"}, {"measurement": "residual activity", "setting": "[19]", "result": 58, "unit": "%"}, {"measurement": "residual activity", "setting": "[20]", "result": 95, "unit": "%"}, {"measurement": "residual activity", "setting": "[21]", "result": 96, "unit": "%"}, {"measurement": "residual activity", "setting": "[22]", "result": 96, "unit": "%"}, {"measurement": "residual activity", "setting": "[23]", "result": 100, "unit": "%"}, {"measurement": "residual activity", "setting": "[24]", "result": 96, "unit": "%"}, {"measurement": "residual activity", "setting": "[25]", "result": 38, "unit": "%"}, {"measurement": "residual activity", "setting": "[26]", "result": 97, "unit": "%"}, {"measurement": "residual activity", "setting": "[27]", "result": 100, "unit": "%"}, {"measurement": "residual activity", "setting": "[28]", "result": 80, "unit": "%"}, {"measurement": "residual activity", "setting": "[29]", "result": 100, "unit": "%"}, {"measurement": "residual activity", "setting": "[30]", "result": 83, "unit": "%"}, {"measurement": "residual activity", "setting": "[31]", "result": 100, "unit": "%"}, {"measurement": "residual activity", "setting": "[32]", "result": 100, "unit": "%"}, {"measurement": "residual activity", "setting": "[33]", "result": 100, "unit": "%"}, {"measurement": "residual activity", "setting": "[34]", "result": 92, "unit": "%"}, {"measurement": "residual activity", "setting": "[35]", "result": 100, "unit": "%"}, {"measurement": "inhibition", "setting": "[36]", "result": 0.97, "unit": "%"}, {"measurement": "inhibition", "setting": "[37]", "result": 36.8, "unit": "%"}]}
